Data from patent EP1147095B1, “2, 3, 4, 5-TETRAHYDRO-1H-[1, 4] BENZODIAZEPINE-3-HYDROXAMIC ACIDS AS MATRIX METALLOPROTEINASE INHIBITORS” (Wyeth Holdings Corporation, priority 1999, dated 2000).

Tests used:
Assay type in all cases: biochemical
MMP-1 = molecular target: T1, MMP-1 (Homo sapiens, UniProt P03956); test: In Vitro Collagenase Assay; settings: human recombinant fibroblast collagenase, fluorogenic peptide substrate
T1 construct: human recombinant fibroblast collagenase (truncated, mw=18,828)
T1 sequence (P03956 100-269 limits assumed): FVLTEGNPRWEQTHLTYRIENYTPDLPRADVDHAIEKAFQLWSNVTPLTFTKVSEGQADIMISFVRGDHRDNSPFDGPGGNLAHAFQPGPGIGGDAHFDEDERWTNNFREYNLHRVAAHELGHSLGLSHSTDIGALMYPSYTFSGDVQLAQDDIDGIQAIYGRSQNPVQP
Text: In Vitro Collagenase Assay
This assay was based on the cleavage of a peptide substrate ((Dnp-Pro-Cha-Gly-Cys(Me)-His-Ala-Lys(NMa)-NH2), available from Peptide International, Inc.) by collagenase releasing the fluorescent NMa group which was quantitated on the fluorometer as disclosed in Bickett et al., "A High Throughput Fluorogenic Substrate for Interstitial Collagenase (MMP-1) and Gelatinase (MMP-9)", Anal. Biochem., 212:58-64, (1993). Dnp quenches the NMa fluorescence in the intact substrate.
The assay was run in HCBC assay buffer (50 mM HEPES, pH 7.0, 5 mM Ca^+2, 0.02% Brij, 0.5% Cysteine), with human recombinant fibroblast collagenase (truncated, mw=18,828, from Wyeth-Ayerst Research, Radnor, PA). The substrate was dissolved in methanol and stored frozen in 1 mM aliquots. Collagenase was stored frozen in buffer in 25 µM aliquots. In conducting the assay, the substrate was dissolved in HCBC buffer to a final concentration of 10 µM and collagenase to a final concentration of 5 nM. The compounds being examined were dissolved in methanol, DMSO, or HCBC. The methanol and DMSO were diluted in HCBC to < 1.0%. The compounds were added to a 96 well plate containing enzyme and the reaction was started by the addition of substrate.
The reaction was read (excitation 340 nm, emission 444 nm) for 10 min. and the increase in fluorescence over time was plotted as a linear line. The slope of the line was calculated representing the reaction rate. The linearity of the reaction rate was confirmed (r^2 >0.85). The mean (x ± sem) of the control rate was calculated and compared for statistical significance (p <0.05) with drug-treated rates using Dunnett's multiple comparison test. Dose-response relationships were generated using multiple doses of drug and IC50 values with 95% CI were estimated using linear regression.

MMP-9 = molecular target: T2, MMP-9 (Homo sapiens, UniProt P14780); test: In Vitro Gelatinase Assay; settings: human neutrophil gelatinase B, thiopeptide substrate
T2 construct: from tissue; host or cells: human neutrophils
Method: In Vitro Gelatinase Assay
The assay is based on the cleavage of the thiopeptide substrate ((Ac-Pro-Leu-Gly(2-mercapto-4-methyl-pentanoyl)-Leu-Gly-OEt), available from Bachem Bioscience) by the enzyme gelatinase, releasing the substrate product which reacts colorimetrically with DTNB ((5,5'-dithio-bis(2-nitro-benzoic acid)). This assay is disclosed in Weingarten et al., "Spectrophotometric Assay for Vertebrate Collegenase", Anal. Biochem., 147:437-440, (1985). The enzyme activity is measured by the rate of the color increase.
The thiopeptide substrate was made up fresh as a 20 mM stock in 100% DMSO and the DTNB was dissolved in 100% DMSO as a 100 mM stock and stored in the dark at room temperature. The substrate and the DTNB were diluted together to 1 mM with substrate buffer (50 mM HEPES, pH 7.5, 5 mM CaCl2) before use. The stock of human neutrophil gelatinase B was diluted with assay buffer (50 mM HEPES, pH 7.5, 5 mM CaCl2, 0.02% Brij) to a final concentration of 0.15 nM.
The assay buffer, enzyme, DTNB/substrate (500 µM final concentration) and vehicle or inhibitor were added to a 96 well plate (total reaction volume of 200µl) and the increase in color was monitored spectrophotometrically for 5 minutes at 405 nm on a plate reader.
The increase in OD405 was plotted and the slope of the line was calculated. The slope represents the reaction rate. The linearity of the reaction rate was confirmed (r^2 >0.85) and the mean (x ± sem) of the control rate was calculated and compared for statistical significance (p <0.05) with drug-treated rates using Dunnett's multiple comparison test. Dose-response relationships were generated using multiple doses of drug and IC50 values with 95% CI were estimated using linear regression (IPRED, HTB).

MMP-13 = MMP-13 (Homo sapiens, UniProt P45452); test: MMP-13 inhibition (Table 1, no method described)
TACE = molecular target: T3, TACE (Homo sapiens, UniProt P78536); test: Procedure for Measuring TACE Inhibition; settings: TACE (Immunex), fluorescent peptidyl substrate
T3 construct: purchased Immunex
Method: The plates were incubated for 10 minutes at room temperature. The reaction was initiated by addition of a fluorescent peptidyl substrate (final concentration 100 µM) to each well with shaking on a shaker for 5 sec. The reaction was read (excitation 340 nm, emission 420 nm) for 10 min. and the increase in fluorescence over time was plotted as a linear line. The slope of the line was calculated and this represents the reaction rate. […] The mean (x±sem) of the control rate was calculated and compared for statistical significance (p<0.05) with drug-treated rates using Dunnett's multiple comparison test.

T2 sequence (P14780 94-707): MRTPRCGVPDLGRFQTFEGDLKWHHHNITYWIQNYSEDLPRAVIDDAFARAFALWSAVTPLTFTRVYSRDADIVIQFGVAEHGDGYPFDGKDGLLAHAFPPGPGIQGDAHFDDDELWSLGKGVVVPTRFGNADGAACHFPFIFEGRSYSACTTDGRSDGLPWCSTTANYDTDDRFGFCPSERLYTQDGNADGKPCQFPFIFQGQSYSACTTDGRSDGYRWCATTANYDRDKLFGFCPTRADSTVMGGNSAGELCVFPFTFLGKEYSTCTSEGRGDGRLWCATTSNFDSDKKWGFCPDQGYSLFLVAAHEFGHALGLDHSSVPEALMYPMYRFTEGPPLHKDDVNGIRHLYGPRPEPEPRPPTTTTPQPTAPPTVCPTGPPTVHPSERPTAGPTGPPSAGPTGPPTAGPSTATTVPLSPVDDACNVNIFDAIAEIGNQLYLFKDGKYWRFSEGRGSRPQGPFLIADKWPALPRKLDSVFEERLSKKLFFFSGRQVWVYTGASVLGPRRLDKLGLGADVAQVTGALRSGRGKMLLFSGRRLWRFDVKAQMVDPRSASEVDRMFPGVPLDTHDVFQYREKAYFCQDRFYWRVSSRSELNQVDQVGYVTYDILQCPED
T3 sequence (P78536 215-824): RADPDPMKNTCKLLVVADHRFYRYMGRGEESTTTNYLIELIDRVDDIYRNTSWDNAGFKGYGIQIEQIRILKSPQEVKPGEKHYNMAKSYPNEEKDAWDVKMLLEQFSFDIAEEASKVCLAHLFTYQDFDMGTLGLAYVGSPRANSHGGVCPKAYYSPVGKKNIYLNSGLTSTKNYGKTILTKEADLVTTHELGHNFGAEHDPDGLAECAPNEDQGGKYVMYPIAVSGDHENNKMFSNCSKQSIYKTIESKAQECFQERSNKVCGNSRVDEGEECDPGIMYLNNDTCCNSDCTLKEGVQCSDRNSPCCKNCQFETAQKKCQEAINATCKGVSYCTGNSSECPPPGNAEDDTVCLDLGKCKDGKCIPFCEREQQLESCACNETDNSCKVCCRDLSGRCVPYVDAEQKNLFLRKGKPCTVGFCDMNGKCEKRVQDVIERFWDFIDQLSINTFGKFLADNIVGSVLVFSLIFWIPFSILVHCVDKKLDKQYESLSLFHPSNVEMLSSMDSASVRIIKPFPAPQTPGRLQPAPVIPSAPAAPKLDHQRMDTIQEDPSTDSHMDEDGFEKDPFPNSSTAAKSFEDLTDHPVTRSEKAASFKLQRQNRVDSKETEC

| Compound | IC50 (MMP-1) | IC50 (MMP-9) | IC50 (MMP-13) | IC50 (TACE) |
| --- | --- | --- | --- | --- |
| 4-(4-But-2-ynyloxybenzene-sulfonyl)-1-methoxyacetyl-2,3,4,5-tetrahydro-1H-[1,4]benzodiazepine-3-carboxylic acid, hydroxyamide [Example 57] | 125 nM | 2 nM | 7 nM | 33 nM |
| 4-(4-[4-Methoxybut-2-ynyloxy]benzenesulfonyl)-1-(3-pyridinylcarbonyl)-2,3,4,5-tetrahydro-1H-[1,4]benzodiazepine-3-carboxylic acid, hydroxyamide [Example 58] | 841 nM | 33 nM | 29 nM | 10 nM |
| CC#CCOc1ccc(S(=O)(=O)N2Cc3ccccc3N(C(C)=O)CC2C(=O)NO)cc1 (centres unmarked) [Example 1, 1-Acetyl-4-(4-but-2-ynyloxbenzenesulfonyl)-2,3,4,5-tetrahydro-1H-[1,4]benzodiazepine-3-carboxylic acid, hydroxyamide] | 835 nM | 228 nM | 77 nM | 16 nM |
| CC#CCOc1ccc(S(=O)(=O)N2Cc3ccccc3N(C(=O)c3ccccc3)CC2C(=O)NO)cc1 (centres unmarked) [Example 3, 1-Benzoyl-4-(4-but-2-ynyloxybenzenesulfonyl)-2,3,4,5-tetrahydro-1H-[1,4]-benzodiazepine-3-carboxylic acid, hydroxyamide] | 165 nM | 36 nM |  |  |
